Columns and labels:
Assay in all cases: KINOMEscan competition binding
Conditions in all cases: compound 0.5 µM
[1] = molecular target: PIM1 (human) (UniProt P11309)
[2] = molecular target: IRAK1 (human) (UniProt P51617)
[3] = molecular target: SGK3 (human) (UniProt Q96BR1)
[4] = molecular target: TEK (human) (UniProt Q02763)
[5] = molecular target: DYRK1A (human) (UniProt Q13627)
[6] = molecular target: SRPK2 (human) (UniProt P78362)
[7] = molecular target: TIE1 (human) (UniProt P35590)
[8] = molecular target: AAK1 (human) (UniProt Q2M2I8)
[9] = molecular target: NEK11 (human) (UniProt Q8NG66)
[10] = molecular target: NTRK1 (human) (UniProt P04629)
[11] = molecular target: EPHA7 (human) (UniProt Q15375)
[12] = molecular target: RPS6KA5 KD2 (human) (UniProt O75582)
[13] = molecular target: EPHA4 (human) (UniProt P54764)
[14] = molecular target: CHEK1 (human) (UniProt O14757)
[15] = molecular target: ERBB3 (human) (UniProt P21860)
[16] = molecular target: RET (human) (UniProt P07949)
[17] = tested on: ABL1 (human), P00519 [Y253F]
[18] = molecular target: TTK (human) (UniProt P33981)
[19] = molecular target: CSNK1E (human) (UniProt P49674)
[20] = molecular target: TBK1 (human) (UniProt Q9UHD2)
[21] = molecular target: CSNK2A1 (human) (UniProt P68400)
[22] = molecular target: BMPR1A (human) (UniProt P36894)
[23] = molecular target: PRKCD (human) (UniProt Q05655)
[24] = molecular target: PHKG2 (human) (UniProt P15735)
[25] = molecular target: PRKCE (human) (UniProt Q02156)
[26] = molecular target: PRKX (human) (UniProt P51817)
[27] = molecular target: LYN (human) (UniProt P07948)
[28] = molecular target: CDC42BPG (human) (UniProt Q6DT37)
[29] = molecular target: MAP3K13 (human) (UniProt O43283)
[30] = molecular target: JAK1 JH2 pseudokinase (human) (UniProt P23458)
[31] = molecular target: TNNI3K (human) (UniProt Q59H18)
[32] = molecular target: MAP4K1 (human) (UniProt Q92918)
[33] = molecular target: MYLK4 (human) (UniProt Q86YV6)
[34] = molecular target: PRKG1 (human) (UniProt Q13976)
[35] = molecular target: MAP3K6 (human) (UniProt O95382)
[36] = molecular target: BMPR1B (human) (UniProt O00238)
[37] = molecular target: FRK (human) (UniProt P42685)
[38] = molecular target: PIP4K2B (human) (UniProt P78356)
[39] = molecular target: FGFR2 (human) (UniProt P21802)
[40] = molecular target: MAPK13 (human) (UniProt O15264)
[41] = molecular target: PIK3C2G (human) (UniProt O75747)
[42] = molecular target: EPHA3 (human) (UniProt P29320)

EPHA7 (human), sequence (Q15375 whole entry, looked up): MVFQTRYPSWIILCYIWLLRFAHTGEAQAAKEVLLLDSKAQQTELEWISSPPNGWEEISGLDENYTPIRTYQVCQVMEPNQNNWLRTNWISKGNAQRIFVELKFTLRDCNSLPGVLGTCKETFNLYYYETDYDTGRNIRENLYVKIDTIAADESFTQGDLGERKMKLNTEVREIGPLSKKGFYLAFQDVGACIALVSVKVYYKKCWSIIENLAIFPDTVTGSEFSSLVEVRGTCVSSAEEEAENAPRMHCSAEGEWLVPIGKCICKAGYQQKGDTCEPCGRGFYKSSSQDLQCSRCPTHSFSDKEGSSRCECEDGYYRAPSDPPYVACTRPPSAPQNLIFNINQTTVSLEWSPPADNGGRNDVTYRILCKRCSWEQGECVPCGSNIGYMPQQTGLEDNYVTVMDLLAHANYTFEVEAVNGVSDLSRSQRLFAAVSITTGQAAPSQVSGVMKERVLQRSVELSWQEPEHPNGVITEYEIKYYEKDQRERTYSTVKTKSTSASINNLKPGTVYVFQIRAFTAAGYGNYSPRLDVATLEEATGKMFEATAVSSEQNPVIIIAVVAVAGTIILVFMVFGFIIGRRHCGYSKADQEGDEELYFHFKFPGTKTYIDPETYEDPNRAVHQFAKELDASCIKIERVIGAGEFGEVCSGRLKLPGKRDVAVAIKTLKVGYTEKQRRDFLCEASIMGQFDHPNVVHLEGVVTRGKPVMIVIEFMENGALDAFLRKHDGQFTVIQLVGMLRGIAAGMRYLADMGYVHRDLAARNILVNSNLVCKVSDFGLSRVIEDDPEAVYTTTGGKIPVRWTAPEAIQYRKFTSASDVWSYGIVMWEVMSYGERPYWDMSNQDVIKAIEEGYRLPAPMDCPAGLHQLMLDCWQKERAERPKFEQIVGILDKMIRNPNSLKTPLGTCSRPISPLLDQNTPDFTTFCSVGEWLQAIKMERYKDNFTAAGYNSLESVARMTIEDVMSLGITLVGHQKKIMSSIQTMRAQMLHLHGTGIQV
PRKCD (human), sequence (Q05655 whole entry, looked up): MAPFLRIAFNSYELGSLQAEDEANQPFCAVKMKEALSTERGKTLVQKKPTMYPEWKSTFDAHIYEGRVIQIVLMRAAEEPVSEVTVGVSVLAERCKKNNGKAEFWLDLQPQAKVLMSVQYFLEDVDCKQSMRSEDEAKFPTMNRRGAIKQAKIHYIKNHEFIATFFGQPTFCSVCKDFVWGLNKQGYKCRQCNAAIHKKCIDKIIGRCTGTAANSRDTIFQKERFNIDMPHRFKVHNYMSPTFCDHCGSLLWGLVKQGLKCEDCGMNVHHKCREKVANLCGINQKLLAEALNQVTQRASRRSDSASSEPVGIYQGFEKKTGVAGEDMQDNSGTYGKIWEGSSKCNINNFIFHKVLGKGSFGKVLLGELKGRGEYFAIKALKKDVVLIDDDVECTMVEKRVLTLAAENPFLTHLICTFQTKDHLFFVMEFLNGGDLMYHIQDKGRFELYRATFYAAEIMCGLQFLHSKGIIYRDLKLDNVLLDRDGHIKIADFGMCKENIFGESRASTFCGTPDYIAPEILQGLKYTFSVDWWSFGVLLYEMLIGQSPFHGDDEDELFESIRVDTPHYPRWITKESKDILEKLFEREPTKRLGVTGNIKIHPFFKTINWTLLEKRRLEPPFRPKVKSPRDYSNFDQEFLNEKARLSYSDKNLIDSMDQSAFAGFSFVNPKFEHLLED
MYLK4 (human), sequence (Q86YV6 whole entry, looked up): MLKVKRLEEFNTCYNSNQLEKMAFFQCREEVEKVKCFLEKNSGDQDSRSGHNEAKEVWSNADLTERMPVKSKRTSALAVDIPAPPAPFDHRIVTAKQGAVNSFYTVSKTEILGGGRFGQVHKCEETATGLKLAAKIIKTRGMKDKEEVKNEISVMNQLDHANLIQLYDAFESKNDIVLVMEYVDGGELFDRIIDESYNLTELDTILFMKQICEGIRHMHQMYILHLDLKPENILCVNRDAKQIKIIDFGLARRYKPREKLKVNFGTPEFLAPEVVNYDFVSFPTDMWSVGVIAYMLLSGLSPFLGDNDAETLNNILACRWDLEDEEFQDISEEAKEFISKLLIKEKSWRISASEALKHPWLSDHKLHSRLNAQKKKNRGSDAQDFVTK
LYN (human), sequence (P07948 whole entry, looked up): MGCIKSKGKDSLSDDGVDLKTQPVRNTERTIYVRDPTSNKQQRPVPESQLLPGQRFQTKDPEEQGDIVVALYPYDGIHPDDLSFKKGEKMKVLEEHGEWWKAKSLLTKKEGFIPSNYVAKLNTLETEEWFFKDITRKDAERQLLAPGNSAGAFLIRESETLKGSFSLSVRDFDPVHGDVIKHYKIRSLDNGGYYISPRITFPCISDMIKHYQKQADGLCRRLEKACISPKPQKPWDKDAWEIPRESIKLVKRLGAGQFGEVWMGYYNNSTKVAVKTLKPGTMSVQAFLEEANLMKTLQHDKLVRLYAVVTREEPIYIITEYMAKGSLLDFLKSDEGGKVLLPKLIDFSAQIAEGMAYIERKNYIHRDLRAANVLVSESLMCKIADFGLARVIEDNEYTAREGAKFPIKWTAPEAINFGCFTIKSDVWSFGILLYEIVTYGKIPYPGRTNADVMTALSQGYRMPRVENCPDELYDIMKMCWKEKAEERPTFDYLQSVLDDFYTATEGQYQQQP
CDC42BPG (human), sequence (Q6DT37 whole entry, looked up): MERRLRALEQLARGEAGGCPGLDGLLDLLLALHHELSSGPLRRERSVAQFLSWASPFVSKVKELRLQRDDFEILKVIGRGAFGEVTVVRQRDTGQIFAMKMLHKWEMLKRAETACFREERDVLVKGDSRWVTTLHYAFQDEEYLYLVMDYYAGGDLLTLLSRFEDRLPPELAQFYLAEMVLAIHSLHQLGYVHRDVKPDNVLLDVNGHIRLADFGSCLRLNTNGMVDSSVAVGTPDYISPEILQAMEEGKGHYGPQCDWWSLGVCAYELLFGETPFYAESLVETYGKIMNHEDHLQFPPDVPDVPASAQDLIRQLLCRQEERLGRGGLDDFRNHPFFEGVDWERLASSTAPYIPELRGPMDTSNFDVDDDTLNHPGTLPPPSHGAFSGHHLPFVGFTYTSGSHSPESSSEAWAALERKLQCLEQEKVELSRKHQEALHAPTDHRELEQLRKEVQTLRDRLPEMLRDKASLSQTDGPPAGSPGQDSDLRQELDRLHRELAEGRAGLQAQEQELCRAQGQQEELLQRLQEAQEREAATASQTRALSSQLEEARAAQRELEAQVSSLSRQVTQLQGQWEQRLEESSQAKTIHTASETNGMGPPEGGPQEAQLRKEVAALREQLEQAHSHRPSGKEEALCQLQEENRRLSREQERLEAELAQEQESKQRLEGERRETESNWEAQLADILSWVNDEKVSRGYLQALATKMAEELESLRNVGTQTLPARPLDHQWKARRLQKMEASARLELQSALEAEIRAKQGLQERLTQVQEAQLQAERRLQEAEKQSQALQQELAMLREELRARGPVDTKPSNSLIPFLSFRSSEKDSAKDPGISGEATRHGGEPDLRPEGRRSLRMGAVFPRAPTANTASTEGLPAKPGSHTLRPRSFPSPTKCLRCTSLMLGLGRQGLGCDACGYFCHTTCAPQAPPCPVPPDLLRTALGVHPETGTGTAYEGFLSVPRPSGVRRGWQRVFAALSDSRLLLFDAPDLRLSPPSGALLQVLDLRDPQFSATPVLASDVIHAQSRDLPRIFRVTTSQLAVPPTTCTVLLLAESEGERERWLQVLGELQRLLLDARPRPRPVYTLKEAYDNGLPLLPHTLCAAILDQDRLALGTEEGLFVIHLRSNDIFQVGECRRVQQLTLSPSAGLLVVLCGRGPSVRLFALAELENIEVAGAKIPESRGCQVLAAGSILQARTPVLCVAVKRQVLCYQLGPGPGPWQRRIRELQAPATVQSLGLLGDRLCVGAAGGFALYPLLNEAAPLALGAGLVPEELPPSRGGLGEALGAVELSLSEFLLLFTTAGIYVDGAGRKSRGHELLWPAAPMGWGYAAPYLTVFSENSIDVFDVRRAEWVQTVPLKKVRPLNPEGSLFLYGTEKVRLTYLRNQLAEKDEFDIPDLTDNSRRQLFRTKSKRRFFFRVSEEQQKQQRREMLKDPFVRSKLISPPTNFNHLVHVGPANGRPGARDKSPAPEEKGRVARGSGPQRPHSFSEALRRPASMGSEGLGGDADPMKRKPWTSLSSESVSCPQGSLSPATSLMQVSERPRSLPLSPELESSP
CSNK1E (human), sequence (P49674 whole entry, looked up): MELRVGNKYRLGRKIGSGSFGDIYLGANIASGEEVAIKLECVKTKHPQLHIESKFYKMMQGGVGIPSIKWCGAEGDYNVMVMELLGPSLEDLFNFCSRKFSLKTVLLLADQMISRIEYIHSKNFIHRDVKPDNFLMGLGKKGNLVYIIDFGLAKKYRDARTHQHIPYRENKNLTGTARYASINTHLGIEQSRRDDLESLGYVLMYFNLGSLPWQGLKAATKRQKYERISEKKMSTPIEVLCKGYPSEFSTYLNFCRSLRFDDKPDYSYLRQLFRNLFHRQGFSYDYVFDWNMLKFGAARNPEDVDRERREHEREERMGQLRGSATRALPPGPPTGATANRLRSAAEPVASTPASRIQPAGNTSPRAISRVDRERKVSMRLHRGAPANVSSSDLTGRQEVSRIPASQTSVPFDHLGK
PRKX (human), sequence (P51817 whole entry, looked up): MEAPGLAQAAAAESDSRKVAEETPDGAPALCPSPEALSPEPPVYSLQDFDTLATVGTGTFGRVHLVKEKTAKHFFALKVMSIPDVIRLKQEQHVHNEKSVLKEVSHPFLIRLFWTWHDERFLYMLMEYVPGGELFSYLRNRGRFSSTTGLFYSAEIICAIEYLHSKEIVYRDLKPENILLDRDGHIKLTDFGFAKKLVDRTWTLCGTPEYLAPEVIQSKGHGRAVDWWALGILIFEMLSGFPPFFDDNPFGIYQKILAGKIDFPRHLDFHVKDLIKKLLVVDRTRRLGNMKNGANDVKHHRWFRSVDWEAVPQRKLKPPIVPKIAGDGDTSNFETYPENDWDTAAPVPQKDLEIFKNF

Structure (SMILES): Cn1c2ccccc2c2c3c(c4c5ccccc5n(CCC#N)c4c21)CNC3=O
- kinase still bound, per cent of control [1]: 32%
- kinase still bound, per cent of control [2]: 14%
- kinase still bound, per cent of control [3]: 72%
- kinase still bound, per cent of control [4]: 99%
- kinase still bound, per cent of control [5]: 6.4%
- kinase still bound, per cent of control [6]: 9.2%
- kinase still bound, per cent of control [7]: 100%
- kinase still bound, per cent of control [8]: 0.55%
- kinase still bound, per cent of control [9]: 100%
- kinase still bound, per cent of control [10]: 0.1%
- kinase still bound, per cent of control [11]: 81%
- kinase still bound, per cent of control [12]: 71%
- kinase still bound, per cent of control [13]: 97%
- kinase still bound, per cent of control [14]: 0.2%
- kinase still bound, per cent of control [15]: 94%
- kinase still bound, per cent of control [16]: 0.6%
- kinase still bound, per cent of control [17]: 100%
- kinase still bound, per cent of control [18]: 23%
- kinase still bound, per cent of control [19]: 100%
- kinase still bound, per cent of control [20]: 92%
- kinase still bound, per cent of control [21]: 80%
- kinase still bound, per cent of control [22]: 73%
- kinase still bound, per cent of control [23]: 43%
- kinase still bound, per cent of control [24]: 4.4%
- kinase still bound, per cent of control [25]: 66%
- kinase still bound, per cent of control [26]: 53%
- kinase still bound, per cent of control [27]: 100%
- kinase still bound, per cent of control [28]: 100%
- kinase still bound, per cent of control [29]: 33%
- kinase still bound, per cent of control [30]: 75%
- kinase still bound, per cent of control [31]: 100%
- kinase still bound, per cent of control [32]: 33%
- kinase still bound, per cent of control [33]: 17%
- kinase still bound, per cent of control [34]: 67%
- kinase still bound, per cent of control [35]: 62%
- kinase still bound, per cent of control [36]: 56%
- kinase still bound, per cent of control [37]: 84%
- kinase still bound, per cent of control [38]: 2%
- kinase still bound, per cent of control [39]: 95%
- kinase still bound, per cent of control [40]: 100%
- kinase still bound, per cent of control [41]: 70%
- kinase still bound, per cent of control [42]: 53%

Source: the kinase profiling compilation of Christmann-Franck et al. (2016)
